From patent US20150050301A1, “Contiguous Overlapping Peptides for Treatment of House Dust Mites Allergy” (ANERGIS S.A., priority 2013, published 2015)
Like-named read-outs stand apart in the source and are kept apart here. Residues, ends and D or L forms follow the SMILES beside them. No end group written: not given here.

B1: TNACSINGNAPAEIDLRQMRTVTPIRMQGGCGSCWAFSGVAATESAYLAYRNQSLDLAEQELVDCA (peptide, listed as Dermatophagoides pteronyssinus)
chain: TNACSINGNAPAEIDLRQMRTVTPIRMQGGCGSCWAFSGVAATESAYLAYRNQSLDLAEQELVDCA
notes: Der p 1 contiguous overlapping peptide, 66AA
B2: TNACSINGNAPAEIDLRQMRTVTPIRMQGGCGSCWAFSGVAATESAYLAYRNQSLDLAEQELVDCASQHG (peptide, listed as Dermatophagoides pteronyssinus)
chain: TNACSINGNAPAEIDLRQMRTVTPIRMQGGCGSCWAFSGVAATESAYLAYRNQSLDLAEQELVDCASQHG
notes: Der p 1 contiguous overlapping peptide, 70AA, T99 to G168
B3: AIAVIIGIKDLDAFRHYDGRTIIQRDNGYQPNYHAVNIVGYSNAQGVDYWIVRNSWDTNWGDNGYGYFAANIDLMMIEEYPYVVIL (peptide)
peptide: AIAVIIGIKDLDAFRHYDGRTIIQRDNGYQPNYHAVNIVGYSNAQGVDYWIVRNSWDTNWGDNGYGYFAANIDLMMIEEYPYVVIL
B4: SQHGCHGDTIPRGIEYIQHNGVVQESYYRYVAREQSCRRPNAQRFGISNYCQIYPPNVNKIREALAQTHSAIAVIIGIKDLDAFRH (peptide)
peptide: SQHGCHGDTIPRGIEYIQHNGVVQESYYRYVAREQSCRRPNAQRFGISNYCQIYPPNVNKIREALAQTHSAIAVIIGIKDLDAFRH
B5: TNACSINGNAPAEIDLRQMRTVTPIRMQGGCGSCWAFSGVAATESAYLAYRNQSLDLAEQELVDCASQHGCHGDTIPRGIE (peptide, listed as Dermatophagoides pteronyssinus)
chain: TNACSINGNAPAEIDLRQMRTVTPIRMQGGCGSCWAFSGVAATESAYLAYRNQSLDLAEQELVDCASQHGCHGDTIPRGIE
notes: Der p 1 contiguous overlapping peptide, 81AA

Tests used:
[1] = Solubility Characteristics of COPs; type: physicochemical
Protocol: All COPs were synthesized by solid phase fmoc chemistry at research scale to allow determination of IgE binding. […] Peptides were resuspended either in water at 2 mg/ml or at 10 to 20 mg per ml in DMSO (see Table 1) and frozen in aliquots.

[2] = system: IgE of sera of house dust mite allergic patients binding to nDer p 1; experiment: Competition ELISA on Der p 1 coated plates; parameters: species or system human; conditions: for IgE binding in competition ELISA (Der p 1): sera from patients allergic to house dust mites, COPs 10^−5 to 10^−10 M; for effect of denaturing salts on IgE binding (Der p 1 competition ELISA): denaturing salts incl. guanidinium chloride or urea, 30 min pre-incubation with 1M guanidinium chloride
Protocol: (§1) Purified Der p 1 or Der p 2 at 1.0 μg/ml were coated overnight on 96-well Nunc Maxisorp® immunoplates (Thermo Fisher Scientific Inc., Wohlen, Switzerland). After blocking with 1% BSA, either twenty-fold, thirty-fold or forty-fold up to 200-fold dilutions of patient serum were added depending on specific IgE content. […] Sera of allergic patients were obtained from US and Europe (PlasmaLab International, Everett, Wash., USA and Biomnis, Lyon, France) respectively) selected for positive CAP for D. pteronyssinus and clear signal over background and used to test for competition with the peptides. Serial dilutions of each set of COPs, namely for Der p 1 Set A, B, C or D and for Der p 2 mixes D, E or F at concentrations ranging from 10^−5 to 10^−10 M were pre-incubated with selected serums for 15 min. on ice.

[3] = system: IgE of sera of house dust mite allergic patients binding to nDer p 2; experiment: Competition ELISA on Der p 2 coated plates; parameters: species or system human; conditions: sera from patients allergic to house dust mites; COPs 10^−5 to 10^−10 M
Protocol: as §1

Row | Molecule | Conc. [1] [µg/mL] | IgE binding in competition ELISA (Der p 1) [2] | Conc. ([1]; Solvent H2O) [µg/mL] | further results
1 | PNVNKIREALAQTHSAIAVIIGIKDLDAFRHYDGRTIIQRDNGYQPNYHAVNIVGYSNAQGVDYWIVRNSWDT [AllerDM1.6] | 800 | responsible for the reactivity | – | –
2 | PNVNKIREALAQTHSAIAVIIGIKDLDAFRHYDGRTIIQRDNGYQPNYHAVNIVGYSNAQGVD [AllerDM1.62] | 2500 | residual IgE binding | – | effect of denaturing salts on IgE binding (Der p 1 competition ELISA) [2]: strongly diminished IgE binding
3 | SEPCIIHRGKPFQLEALFEANQNSKTAKIEIKASIDGLEVDVPGIDPNACHYMKCPLVKGQQYDIKYTWNVPKIA [AllerDM2.7] | 3500 | – | – | IgE binding in competition ELISA (Der p 2) [3]: residual IgE binding
4 | DQVDVKDCANHEIKKVLVPGCHGSEPCIIHRGKPFQLEAVFEANQNTKTAKIEIKASIDGLEVDVPGIDPNA [AllerDM2.1] | – | – | – | Conc. ([1]; pH 5): 1000 µg/mL; IgE binding in competition ELISA (Der p 2) [3]: did not bind IgE
5 | ASQHGCHGDTIPRGIEYIQHNGVVQESYYRYVAREQS [AllerDM1.53] | – | – | 4000 | solubility in words [1]: solubility in water
6 | PNVNKIREALAQTHSAIAVIIGIKDLDAFRHYDGR [AllerDM1.63] | – | – | 2000 | –
7 | CC[C@H](C)[C@H](NC(=O)[C@H](CCC(=O)O)NC(=O)[C@H](Cc1c[nH]cn1)NC(=O)[C@H](CC(N)=O)NC(=O)[C@H](C)NC(=O)[C@H](CS)NC(=O)[C@H](CC(=O)O)NC(=O)[C@H](CCCCN)NC(=O)[C@@H](NC(=O)[C@H](CC(=O)O)NC(=O)[C@@H](NC(=O)[C@H](CCC(N)=O)NC(=O)[C@@H](N)CC(=O)O)C(C)C)C(C)C)C(=O)N[C@@H](CCCCN)C(=O)N[C@@H](CCCCN)C(=O)N[C@H](C(=O)N[C@@H](CC(C)C)C(=O)N[C@H](C(=O)N1CCC[C@H]1C(=O)NCC(=O)N[C@@H](CS)C(=O)N[C@@H](Cc1c[nH]cn1)C(=O)NCC(=O)N[C@@H](CO)C(=O)N[C@@H](CCC(=O)O)C(=O)O)C(C)C)C(C)C [AllerDM2.3] (H-DQVDVKDCANHEIKKVLVPGCHGSE-OH; N-terminus and C-terminus assumed) | – | – | 3000 | –
8 | LAEQELVDCASQHGCHGDTIPRGIEYIQHNGVVQESYYRYVAREQSCRRPNAQRFGISNYCQIYPPNVNKIRE [AllerDM1.5] | 1700 | responsible for the reactivity | – | solubility in words [1]: solubility in water
9 | KYTWNVPKIAPKSENVVVTVKVLGDNGVLACAIATHAKIRD [AllerDM2.8] | – | – | 3500 | –
10 | HYMKCPLVKGQQYDIKYTWNVPKIAPKSENVVVTVKVLGDNGVLACAIATHAKIRD (cysteines drawn unpaired) [AllerDM2.5] | – | – | 1500 | –
11 | RHYDGRTIIQRDNGYQPNYHAVNIVGYSNAQGVD [AllerDM1.64] | – | – | 4000 | –
12 | HGSEPCIIHRGKPFQLEALFEANQNSKTAKIEIKASIDGLEVDVPGIDPNACHYMK (cysteines drawn unpaired) [AllerDM2.4] | 4200 | – | – | –
13 | CC[C@H](C)[C@H](NC(=O)CNC(=O)[C@H](Cc1ccccc1)NC(=O)[C@H](CCCNC(=N)N)NC(=O)[C@H](CCC(N)=O)NC(=O)[C@H](C)NC(=O)[C@H](CC(N)=O)NC(=O)[C@@H]1CCCN1C(=O)[C@H](CCCNC(=N)N)NC(=O)[C@H](CCCNC(=N)N)NC(=O)[C@H](CS)NC(=O)[C@H](CO)NC(=O)[C@H](CCC(N)=O)NC(=O)[C@H](CCC(=O)O)NC(=O)[C@H](CCCNC(=N)N)NC(=O)[C@H](C)NC(=O)[C@@H](NC(=O)[C@H](Cc1ccc(O)cc1)NC(=O)[C@@H](N)CCCNC(=N)N)C(C)C)C(=O)N[C@@H](CO)C(=O)N[C@@H](CC(N)=O)C(=O)N[C@@H](Cc1ccc(O)cc1)C(=O)N[C@@H](CS)C(=O)N[C@@H](CCC(N)=O)C(=O)N[C@H](C(=O)N[C@@H](Cc1ccc(O)cc1)C(=O)N1CCC[C@H]1C(=O)N1CCC[C@H]1C(=O)N[C@@H](CC(N)=O)C(=O)N[C@H](C(=O)N[C@@H](CC(N)=O)C(=O)N[C@@H](CCCCN)C(=O)N[C@H](C(=O)N[C@@H](CCCNC(=N)N)C(=O)N[C@@H](CCC(=O)O)C(=O)O)[C@@H](C)CC)C(C)C)[C@@H](C)CC [AllerDM1.54] (H-RYVAREQSCRRPNAQRFGISNYCQIYPPNVNKIRE-OH; N-terminus and C-terminus assumed) | – | – | 2000 | solubility in words [1]: solubility in water
14 | ASQHGCHGDTIPRGIEYIQHNGVVQESYYRYVAREQSCRRPNAQRFGISNYCQIYPPNVNKIRE [AllerDM1.52] | 2300 | still bound IgE | – | solubility in words [1]: solubility in water; effect of denaturing salts on IgE binding (Der p 1 competition ELISA) [2]: strongly diminished IgE binding
15 | KVLGDNGVLACAIATHAKIRD [AllerDM2.9] | – | – | 1000 | –
16 | CC[C@H](C)[C@H](NC(=O)CNC(=O)[C@H](Cc1ccccc1)NC(=O)[C@H](CCCNC(=N)N)NC(=O)[C@H](CCC(N)=O)NC(=O)[C@H](C)NC(=O)[C@H](CC(N)=O)NC(=O)[C@@H]1CCCN1C(=O)[C@H](CCCNC(=N)N)NC(=O)[C@H](CCCNC(=N)N)NC(=O)[C@H](CS)NC(=O)[C@H](CO)NC(=O)[C@H](CCC(N)=O)NC(=O)[C@H](CCC(=O)O)NC(=O)[C@H](CCCNC(=N)N)NC(=O)[C@H](C)N)C(=O)N[C@@H](CO)C(=O)N[C@@H](CC(N)=O)C(=O)N[C@@H](Cc1ccc(O)cc1)C(=O)N[C@@H](CS)C(=O)N[C@@H](CCC(N)=O)C(=O)N[C@H](C(=O)N[C@@H](Cc1ccc(O)cc1)C(=O)N1CCC[C@H]1C(=O)N1CCC[C@H]1C(=O)N[C@@H](CC(N)=O)C(=O)N[C@H](C(=O)N[C@@H](CC(N)=O)C(=O)N[C@@H](CCCCN)C(=O)N[C@H](C(=O)N[C@@H](CCCNC(=N)N)C(=O)N[C@@H](CCC(=O)O)C(=O)O)[C@@H](C)CC)C(C)C)[C@@H](C)CC [AllerDM1.5a] (H-AREQSCRRPNAQRFGISNYCQIYPPNVNKIRE-OH; N-terminus and C-terminus assumed) | – | – | 4700 | solubility in words [1]: solubility in water
17 | SIDGLEVDVPGIDPNACHYMKCPLVKGQQYDIKYTWNVPKIAPKSENVVVTVKVLGD (cysteines drawn unpaired) [AllerDM2.10] | – | – | – | Conc. ([1]; H2O after acidification with HCl and neutralization with NaOH): 2000 µg/mL
18 | CC[C@H](C)[C@H](NC(=O)[C@H](CCC(=O)O)NC(=O)[C@H](Cc1c[nH]cn1)NC(=O)[C@H](CC(N)=O)NC(=O)[C@H](C)NC(=O)[C@H](CS)NC(=O)[C@H](CC(=O)O)NC(=O)[C@H](CCCCN)NC(=O)[C@@H](NC(=O)[C@H](CC(=O)O)NC(=O)[C@@H](NC(=O)[C@H](CCC(N)=O)NC(=O)[C@@H](N)CC(=O)O)C(C)C)C(C)C)C(=O)N[C@@H](CCCCN)C(=O)N[C@@H](CCCCN)C(=O)N[C@H](C(=O)N[C@@H](CC(C)C)C(=O)N[C@H](C(=O)N1CCC[C@H]1C(=O)NCC(=O)N[C@@H](CS)C(=O)N[C@@H](Cc1c[nH]cn1)C(=O)NCC(=O)N[C@@H](CO)C(=O)N[C@@H](CCC(=O)O)C(=O)N1CCC[C@H]1C(=O)N[C@@H](CS)C(=O)N[C@H](C(=O)N[C@H](C(=O)N[C@@H](Cc1c[nH]cn1)C(=O)N[C@@H](CCCNC(=N)N)C(=O)O)[C@@H](C)CC)[C@@H](C)CC)C(C)C)C(C)C [AllerDM2.6] (H-DQVDVKDCANHEIKKVLVPGCHGSEPCIIHR-OH; N-terminus and C-terminus assumed) | – | – | 3000 | –
19 | B1 | – | no detectable IgE binding | – | solubility remark ([1]; 1.2: when added to Citrate buffer or PBS at 2 × 10^−5M): NaOH) Difficult pH8; Conc. ([1]; H2O, pH adjusted with HCl and NaOH): 1000 µg/mL
20 | B2 | – | no detectable IgE binding | – | Conc. ([1]; Solvent 7M guanidinium chloride): 30000 µg/mL
21 | B3 | 500 | Residual IgE binding was observed | – | –
22 | B4 | 2000 | Residual IgE binding was observed | – | –
23 | B5 | – | – | – | Conc. ([1]; H2O after addition of HCl and NaOH and citrate buffer pH5.5): 1000 µg/mL
